In ChEMBL document CHEMBL1201862, “PubChem BioAssay data set” (2004):
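Exposure lasted 48 hours, with cells grown in 96-well plates and compounds tested at five concentrations. Here, GI50 denotes the concentration required for 50% inhibition of growth.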 Activity calls are given as the source filed them. Cut-off read from the data, not from the text of the source: active = GI50 up to about 1.1 µM and inactive = higher.

How the values were obtained:
Test in all cases: NCI anticancer screen, dose series, 48 h
NCI-H460 = test system: NCI-H460
HCC 2998 = test system: HCC 2998
KM-20L2 = test system: KM-20L2
SK-MEL-28 = test system: SK-MEL-28
OVCAR-8 = test system: OVCAR-8
786-0 = test system: 786-0
DMS-114 = test system: DMS-114
K562 = test system: K562
KM12 = test system: KM12
XF498 = test system: XF498
SK-OV-3 = test system: SK-OV-3
M19-MEL = test system: M19-MEL
SNB-75 = test system: SNB-75
Malme-3M = test system: Malme-3M
UACC-257 = test system: UACC-257
RPMI-8226 = test system: RPMI-8226
LOX IMVI = test system: LOX IMVI
HL-60 = test system: HL-60
SF-295 = test system: SF-295
OVCAR-4 = test system: OVCAR-4
U-251 = test system: U-251
NCI-H226 = test system: NCI-H226
MOLT-4 = test system: MOLT-4
RXF 393 = test system: RXF 393
HCT-116 = test system: HCT-116
SF-268 = test system: SF-268
DLD-1 = test system: DLD-1
UO-31 = test system: UO-31
SNB-19 = test system: SNB-19
LXFL 529 = test system: LXFL 529
SN12C = test system: SN12C
HT-29 = test system: HT-29
A549 = test system: A549
SF-539 = test system: SF-539
M14 = test system: M14
COLO 205 = test system: COLO 205
CCRF-CEM = test system: CCRF-CEM
DMS-273 = test system: DMS-273
CAKI-1 = test system: CAKI-1
SK-MEL-2 = test system: SK-MEL-2
SW-620 = test system: SW-620
UACC-62 = test system: UACC-62
HOP-18 = test system: HOP-18
HCT-15 = test system: HCT-15
TK-10 = test system: TK-10
IGROV-1 = test system: IGROV-1
NCI-H23 = test system: NCI-H23
OVCAR-5 = test system: OVCAR-5
NCI-H522 = test system: NCI-H522
ACHN = test system: ACHN
HOP-62 = test system: HOP-62
EKVX = test system: EKVX
A498 = test system: A498
HOP-92 = test system: HOP-92
SNB-78 = test system: SNB-78
NCI/ADR-RES = test system: NCI/ADR-RES
MCF7 = test system: MCF7
OVCAR-3 = test system: OVCAR-3
SK-MEL-5 = test system: SK-MEL-5
SR = test system: SR
RXF 631 = test system: RXF 631

COC1CCC(=C2C(=O)OC(C)(C)OC2=O)N1 (configuration not stated)
GI50 (NCI-H460): > 100 µM (inactive)
GI50 (HCC 2998): > 100 µM (inactive)
GI50 (KM-20L2): > 100 µM (inactive)
GI50 (SK-MEL-28): > 100 µM (inactive)
GI50 (OVCAR-8): > 100 µM (inactive)
GI50 (786-0): > 100 µM (inactive)
GI50 (DMS-114): > 100 µM (inactive)
GI50 (K562): > 100 µM (inactive)
GI50 (KM12): > 100 µM (inactive)
GI50 (XF498): > 100 µM (inactive)
GI50 (SK-OV-3): > 100 µM (inactive)
GI50 (M19-MEL): > 100 µM (inactive)
GI50 (SNB-75): > 100 µM (inactive)
GI50 (Malme-3M): > 100 µM (inactive)
GI50 (UACC-257): > 100 µM (inactive)
GI50 (RPMI-8226): > 100 µM (inactive)
GI50 (LOX IMVI): > 100 µM (inactive)
GI50 (HL-60): > 100 µM (inactive)
GI50 (SF-295): > 100 µM (inactive)
GI50 (OVCAR-4): > 100 µM (inactive)
GI50 (U-251): > 100 µM (inactive)
GI50 (NCI-H226): > 100 µM (inactive)
GI50 (MOLT-4): > 100 µM (inactive)
GI50 (RXF 393): > 100 µM (inactive)
GI50 (HCT-116): > 100 µM (inactive)
GI50 (SF-268): > 100 µM (inactive)
GI50 (DLD-1): > 100 µM (inactive)
GI50 (UO-31): > 100 µM (inactive)
GI50 (SNB-19): > 100 µM (inactive)
GI50 (LXFL 529): > 100 µM (inactive)
GI50 (SN12C): > 100 µM (inactive)
GI50 (HT-29): > 100 µM (inactive)
GI50 (A549): > 100 µM (inactive)
GI50 (SF-539): > 100 µM (inactive)
GI50 (M14): > 100 µM (inactive)
GI50 (COLO 205): > 100 µM (inactive)
GI50 (CCRF-CEM): > 100 µM (inactive)
GI50 (DMS-273): > 100 µM (inactive)
GI50 (CAKI-1): > 100 µM (inactive)
GI50 (SK-MEL-2): > 100 µM (inactive)
GI50 (SW-620): > 100 µM (inactive)
GI50 (UACC-62): > 100 µM (inactive)
GI50 (HOP-18): > 100 µM (inactive)
GI50 (HCT-15): > 100 µM
GI50 (TK-10): > 100 µM (inactive)
GI50 (IGROV-1): > 100 µM (inactive)
GI50 (NCI-H23): > 100 µM (inactive)
GI50 (OVCAR-5): > 100 µM (inactive)
GI50 (NCI-H522): > 100 µM (inactive)
GI50 (ACHN): > 100 µM (inactive)
GI50 (HOP-62): > 100 µM (inactive)
GI50 (EKVX): > 100 µM (inactive)

Cc1c2cnccc2c(C)c2c1c1ccccc1n2CCCCCCCl
GI50 (NCI-H460): 29.4 µM (inactive)
GI50 (HCC 2998): > 46.8 µM (inactive)
GI50 (KM-20L2): 25.1 µM (inactive)
GI50 (SK-MEL-28): > 48.4 µM (inactive)
GI50 (OVCAR-8): 26 µM (inactive)
GI50 (A498): > 50 µM (inactive)
GI50 (DMS-114): > 40.3 µM (inactive)
GI50 (K562): 18.1 µM (inactive)
GI50 (KM12): 29.9 µM (inactive)
GI50 (XF498): 33 µM (inactive)
GI50 (SK-OV-3): > 50 µM (inactive)
GI50 (M19-MEL): 40 µM (inactive)
GI50 (SNB-75): > 31.6 µM (inactive)
GI50 (Malme-3M): > 50 µM (inactive)
GI50 (UACC-257): > 33.1 µM (inactive)
GI50 (RPMI-8226): 13.2 µM (inactive)
GI50 (HOP-92): > 50 µM (inactive)
GI50 (LOX IMVI): 30.4 µM (inactive)
GI50 (HL-60): 10.1 µM (inactive)
GI50 (SNB-78): 32.9 µM (inactive)
GI50 (SF-295): 48.9 µM (inactive)
GI50 (OVCAR-4): > 10.5 µM (inactive)
GI50 (U-251): 35.1 µM (inactive)
GI50 (NCI/ADR-RES): > 46.3 µM (inactive)
GI50 (NCI-H226): 22.5 µM (inactive)
GI50 (MOLT-4): 19.9 µM (inactive)
GI50 (RXF 393): > 50 µM (inactive)
GI50 (HCT-116): 23.6 µM (inactive)
GI50 (SF-268): > 45 µM (inactive)
GI50 (DLD-1): > 50 µM (inactive)
GI50 (UO-31): > 47.5 µM (inactive)
GI50 (SNB-19): 40.4 µM (inactive)
GI50 (SN12C): > 50 µM (inactive)
GI50 (MCF7): > 50 µM (inactive)
GI50 (HT-29): 29.6 µM (inactive)
GI50 (A549): > 48.2 µM (inactive)
GI50 (SF-539): > 50 µM (inactive)
GI50 (COLO 205): 28.2 µM (inactive)
GI50 (CCRF-CEM): 32.7 µM (inactive)
GI50 (DMS-273): > 39.8 µM (inactive)
GI50 (CAKI-1): > 50 µM (inactive)
GI50 (SK-MEL-2): > 50 µM (inactive)
GI50 (SW-620): 30 µM (inactive)
GI50 (UACC-62): > 50 µM (inactive)
GI50 (HOP-18): > 7.93 µM (inactive)
GI50 (HCT-15): > 50 µM
GI50 (IGROV-1): > 45.7 µM (inactive)
GI50 (NCI-H23): 38.6 µM (inactive)
GI50 (OVCAR-5): > 46.2 µM (inactive)
GI50 (NCI-H522): > 50 µM (inactive)
GI50 (OVCAR-3): 49.7 µM (inactive)
GI50 (HOP-62): > 50 µM (inactive)
GI50 (EKVX): > 50 µM (inactive)
GI50 (SK-MEL-5): > 50 µM (inactive)

CC(C)(C)OC(=O)C#CC[C@H]1CCCC1/C=C/C(O)=C1/C(=O)NC(CCCNC(=O)OC(C)(C)C)C1=O (some centres not stated)
GI50 (NCI-H460): 20.3 µM (inactive)
GI50 (HCC 2998): 42.9 µM (inactive)
GI50 (KM-20L2): 25.1 µM (inactive)
GI50 (SK-MEL-28): 17.1 µM (inactive)
GI50 (OVCAR-8): 15.2 µM (inactive)
GI50 (A498): 45.2 µM (inactive)
GI50 (786-0): 40.6 µM (inactive)
GI50 (DMS-114): 21.3 µM (inactive)
GI50 (K562): 36 µM (inactive)
GI50 (KM12): 41.6 µM (inactive)
GI50 (SK-OV-3): 88.5 µM (inactive)
GI50 (M19-MEL): 25.9 µM (inactive)
GI50 (SR): 26.2 µM (inactive)
GI50 (SNB-75): 32.6 µM (inactive)
GI50 (Malme-3M): 21.3 µM (inactive)
GI50 (UACC-257): 24.2 µM (inactive)
GI50 (RPMI-8226): 33.2 µM (inactive)
GI50 (HOP-92): 23.7 µM (inactive)
GI50 (LOX IMVI): 19.8 µM (inactive)
GI50 (HL-60): 33.3 µM (inactive)
GI50 (SF-295): 41.4 µM (inactive)
GI50 (OVCAR-4): 33.5 µM (inactive)
GI50 (U-251): 25.9 µM (inactive)
GI50 (RXF 631): 19.4 µM (inactive)
GI50 (NCI-H226): 88.1 µM (inactive)
GI50 (MOLT-4): 32.1 µM (inactive)
GI50 (RXF 393): 14.7 µM (inactive)
GI50 (HCT-116): 11.4 µM (inactive)
GI50 (SF-268): 23.9 µM (inactive)
GI50 (DLD-1): 53 µM (inactive)
GI50 (UO-31): 33.7 µM (inactive)
GI50 (SNB-19): 30.6 µM (inactive)
GI50 (LXFL 529): 21.8 µM (inactive)
GI50 (SN12C): 40.1 µM (inactive)
GI50 (HT-29): 40.1 µM (inactive)
GI50 (A549): > 100 µM (inactive)
GI50 (SF-539): 26.4 µM (inactive)
GI50 (M14): 45.7 µM (inactive)
GI50 (COLO 205): 17.8 µM (inactive)
GI50 (CCRF-CEM): 27.2 µM (inactive)
GI50 (DMS-273): 26.1 µM (inactive)
GI50 (CAKI-1): 38.8 µM (inactive)
GI50 (SK-MEL-2): 16.6 µM (inactive)
GI50 (SW-620): 38.5 µM (inactive)
GI50 (UACC-62): 18.3 µM (inactive)
GI50 (HOP-18): 25.7 µM (inactive)
GI50 (TK-10): 31.9 µM (inactive)
GI50 (IGROV-1): 39.5 µM (inactive)
GI50 (NCI-H23): 24.9 µM (inactive)
GI50 (OVCAR-5): 88.5 µM (inactive)
GI50 (NCI-H522): 16.5 µM (inactive)
GI50 (ACHN): 40.7 µM (inactive)
GI50 (OVCAR-3): 31.8 µM (inactive)
GI50 (HOP-62): 45.4 µM (inactive)
GI50 (EKVX): 16.3 µM (inactive)
GI50 (SK-MEL-5): 47.8 µM (inactive)
